From patent US8815499B2, “In situ detoxification of fermentation inhibitors with reducing agents” (priority 2009, dated 2014) come the findings set out here.

Read-outs that look alike come from different tables or passages of the source.

For data set [1], the system named is yeast Saccharomyces cerevisiae. Here is the method:
A spruce slurry was prepared an subjected to acidic hydrolysis as described in Example 6. […] Sodium dithionite was added to different samples to concentrations of 2.5, 5, 7.5, 10, 12.5, and 15 mM. The treatments were performed at 21° C. for 5 min with stirring. In addition, treatments with 0.1% (7.9 mM) and 1% (79.3 mM) sodium sulphite were performed. […] Furthermore, a sugar solution (glucose 18 g/L, mannose 14 g/L) was prepared to evaluate if the effect of the sodium dithionite treatment was due to an effect on the hydrolysate or the ethanolic fermentation with yeast. Half of the sugar solution was treated with 10 mM sodium dithionite, whereas the rest was left untreated as a reference. The volumes of treated and untreated samples were equalized with water and the pH was adjusted to pH 5.5 prior to the fermentation. Fermentation was performed with the yeast Saccharomyces cerevisiae as described in the previous Examples.
Spruce hydrolysate samples were prepared as in Example 6.
Two samples were treated with DTT to 2 and 20 mM, respectively, two samples were treated with ascorbic acid to 10 and 100 mM, respectively and two samples were treated with glutathione to 1 and 10 mM, respectively.
The treatment time was 3 h for all samples and fermentation was performed as described in the previous Examples.

Data set [2] has as its system baker's yeast (Saccharomyces cerevisiae). Type of data set: cell-based. Here is the method: The pH of the sugarcane bagass and spruce hydrolysates were adjusted to 5.5 with a 5 M solution of sodium hydroxide. The conditioning of each hydrolysate was performed in eight 100-mL glass vessels equipped with magnetic stirrer bars. 26 mL hydrolysate was added to all vessels, and the vessels were placed on a magnetic stirrer plate (IKA-Werke, Staufen, Germany). Sodium dithionite (chemical grade; >87%, Merck, Darmstadt, Germany) was added to hydrolysates in the concentrations 5 and 10 mM. Additions of sodium sulphite to 5 and 10 mM were also performed. The additions were made at room temperature (23° C.) and the samples were kept for 10 min with stirring. The experiments were performed in duplicates.
The efficiency of the additions of the reducing agents was compared with alkali detoxification.
Ethanol measurements were performed by using an enzymatic kit (Ethanol UV-method, Boehringer Mannheim GmbH, Mannheim, Germany). Fermentation experiments were performed to evaluate the effectiveness of the additions and treatments. For comparison, untreated hydrolysates were included in the fermentation experiments as well as reference fermentations of sugar-based medium with an amount of fermentable sugars (i.e. glucose and mannose) corresponding to that in the hydrolysate samples. The fermentations were carried out using baker's yeast (Saccharomyces cerevisiae) (Jästbolaget AB, Rotebro, Sweden). The yeast inoculum was prepared in 750-mL cotton-plugged shake flasks with 300 mL YEPD medium ([…], 2% D-glucose). The flasks were inoculated and incubated with agitation at 30° C. for approximately 12 h. The cells were harvested in the late exponential growth phase by centrifugation (Hermla Z206A, Hermle Labortechnik GmbH, Wehingen, Germany) at 1,500 g for 5 min. The cells were resuspended in an appropriate amount of sterile water to achieve an inoculum consisting of 2.0 g/L (cell dry weight) in all fermentation vessels. The fermentation was carried out in 14 25-mL glass flasks equipped with magnets for stirring and sealed with rubber plugs pierced with cannulas for letting out carbon dioxide. The hydrolysate samples (23.75 mL), or alternatively the sugar solution for reference fermentations, were added to the fermentation flasks along with 0.5 mL of a nutrient solution (150 g/L yeast extract, 75 g/L (NH4)2HPO4, 3.75 g/L MgSO4.7 H2O, 238.2 g/L NaH2PO4.H2O), and 0.75 mL of yeast inoculum. The flasks were incubated at 30° C. in a water bath with magnetic stirring (IKA-Werke). Samples for measurement of sugars and ethanol were withdrawn during the fermentation. The glucose levels during the fermentation were estimated by using a glucometer (Glucometer Elite XL, Bayer AG, Leverkusen, Germany).

In data set [3] the test system is yeast Saccharomyces cerevisiae. Description: Simultaneous saccharification and fermentation (SSF) of spruce slurry. The note with it: for Ethanol concentration: after 70 hours. Type of data set: cell-based. The procedure:
Addition of sodium dithionite and sodium sulphite was tested in an SSF process. Spruce was pretreated as described in Example 1 above. The spruce slurry was adjusted to pH 5.4 with a 5 M solution of sodium hydroxide. Ten 250-mL shake flasks equipped with magnetic stirrer bars were filled with 100 g of spruce slurry. Sodium dithionite or sodium sulphite was added to the slurries to final concentrations of 7.5 and 10 mM. The additions were performed at room temperature (23° C.) for 10 min with stirring. Duplicate experiments were made. Cellulase and cellobiase preparations were prepared and added to the slurry using the enzyme activity loadings as described in Example 1 above. Further, the yeast inoculum was prepared according to Example 1 above. Inoculums were added to give a start concentration of 2.0 g/L (cell dry weight) in every flask. No source of extra nutrients was added. For comparison, two flasks with spruce slurry to which no reducing agents had been added were included in the experiment. The flasks were incubated at 35° C. for 69 h in a water bath with magnetic stirring. The flasks were sealed with Parafilm (Pechiney Plastic Packaging Company, Chicago, Ill., USA) to prevent evaporation of ethanol. Samples were withdrawn for analysis of ethanol according to Example 1 above.
A spruce slurry was prepared according to Examples 1 and 2 above. Different flasks were filled with 100 g each of the spruce slurry and were subjected to a SSF process according to Example 2 above, but with different amounts of dithionite and sulphite added. The produced ethanol was monitored during the fermentation. […]

For data set [4], the system named is yeast Saccharomyces cerevisiae. Put plainly: Simultaneous saccharification and fermentation (SSF) of sugarcane bagass slurry. Type of data set: cell-based. The note with it: 7.5 and 10 mM, FIG. 9.
Protocol: SSF experiments were also performed with sugarcane bagass slurries. […] Reducing agents, dithionite and sulphite, respectively, were added 10 min prior to inoculum in concentrations of studied 7.5 and 10 mM. The ethanol concentration was measured after 13 and 45 hours according to the protocol described in Example 1.
A short description of data set [5]: Fermentation of sugar solution with model inhibitor coniferyl aldehyde. The settings on record: Saccharomyces cerevisiae. The procedure:
(§1) A sugar solution (glucose 18 g/L, mannose 14 g/L) with a coniferyl aldehyde concentration of 2.5 mM was prepared. Half of the solution was treated with 10 mM of sodium dithionite and the rest of the solution was left untreated as a reference. Fermentation was performed with the yeast Saccharomyces cerevisiae as described in the previous Examples.

In data set [6] the test system is yeast Saccharomyces cerevisiae. The data set is described as above. The note with it: sugar solution with coniferyl aldehyde (2.5 mM), untreated, FIG. 12. Here is the method:
as §1

[7] abbreviates: bagass hydrolysate, 6 h fermentation, 10 mM.
Setting [8] is: spruce hydrolysate, 14 h fermentation, 10 mM.

A word on the viability: it is a read-out of living cells in per cent, often relative to untreated cells. Read a low viability as a greater loss of cells.

For `O[C@H](CS)[C@H](O)CS` (racemic) [DTT, Dithiothreitol], the Fermentability entry in data set [1] (acid spruce hydrolysate, 20 mM, treatment time 3 h) was “improved fermentability”. For the same compound, in data set [1] (acid spruce hydrolysate, 20 mM, treatment time 3 h, FIG. 13), the “Glucose consumption rate compared with the untreated sample” value was “higher glucose consumption rate”.
Regarding `N` [NH4OH, ammonium hydroxide, reference compound], the Yield is 0.34 g EtOH/g consumed glucose & mannose in data set [2] (bagass hydrolysate, 6 h fermentation, NH4OH detoxification); 0.43 g EtOH/g consumed glucose & mannose in data set [2] (spruce hydrolysate, 14 h fermentation, NH4OH detoxification); 0.30 g EtOH/g consumed glucose and mannose in data set [1] (NH4OH treatment, 2.75 h); 0.42 g EtOH/g consumed glucose and mannose in data set [1] (NH4OH treatment, 4.25 h); 0.32 g EtOH/g consumed glucose and mannose in data set [1] (NH4OH treatment, 6.25 h); 0.47 g EtOH/g consumed glucose and mannose in data set [1] (NH4OH treatment, 9.25 h). The Ethanol concentration is 4.56 g/L in data set [1] (NH4OH treatment, 2.75 h); 10.75 g/L in data set [1] (NH4OH treatment, 4.25 h); 9.81 g/L in data set [1] (NH4OH treatment, 6.25 h); 14.08 g/L in data set [1] (NH4OH treatment, 9.25 h). Moreover, the Productivity is reported as 1.66 g EtOH × L^−1 × h^−1 in data set [1] (NH4OH treatment, 2.75 h); 2.53 g EtOH × L^−1 × h^−1 in data set [1] (NH4OH treatment, 4.25 h); 1.57 g EtOH × L^−1 × h^−1 in data set [1] (NH4OH treatment, 6.25 h); 1.52 g EtOH × L^−1 × h^−1 in data set [1] (NH4OH treatment, 9.25 h). The compound also displayed a Viable cells in data set [1] (acid spruce hydrolysate, NH4OH treatment, fermentation time 2.25 h) of 95.3 ± 3.0%.
Take `O=S([O-])[O-].[Na+].[Na+]` [Sulphite, sodium sulphite]: the Balanced ethanol yield is reported as 0.21 g EtOH/Σglucose & mannose prior to detoxification in data set [2] (setting [7]) and 0.16 g EtOH/Σglucose & mannose prior to detoxification in data set [2] (setting [8]). Moreover, the Productivity in data set [2] (setting [7]) was determined as 2.9 g EtOH × L^−1 × h^−1; in data set [2] (setting [8]), 1.2 g EtOH × L^−1 × h^−1. Further, the Yield in data set [2] (setting [7]) is given as 0.32 g EtOH/g consumed glucose & mannose; in data set [2] (setting [8]), 0.29 g EtOH/g consumed glucose & mannose. Also, in data set [2] (bagass hydrolysate, 6 h fermentation, FIG. 4), the Ethanol production result is given as “high ethanol production”. Moreover, in data set [2] (spruce hydrolysate, 10 mM, FIGS. 1 and 2), the “Glucose consumption rates and amounts of ethanol produced” value is recorded as “substantial improvement”. In addition, the Ethanol concentration entry in data set [3] (2.5 mM) is “did not result in as high final ethanol concentrations”; in data set [3] (5 mM), “did not result in as high final ethanol concentrations”; in data set [3] (7.5 mM), 35 to 40 g/L; in data set [3] (10 mM), 35 to 40 g/L; in data set [3] (15 mM), “about 40 g/L”; in data set [3] (20 mM), “about 40 g/L”. For the same compound, the Ethanol concentration result in data set [3] (30 mM) is recorded as “about 40 g/L”. The “Ethanol production compared to the untreated hydrolysate” value in data set [3] (7.5 and 10 mM, FIG. 5) is on record as “higher ethanol production”. In data set [3] (7.5 and 10 mM, FIG. 5), the “Time after which ethanol formation leveled off” value is 20 h. In data set [4], the “Fermentability (ethanol production after 13 and 45 hours)” value is on record as “improved fermentability”. Besides, the “Fermentability (glucose consumption)” value in data set [1] (acid spruce hydrolysate, 1% (79.3 mM), FIG. 11) is on record as “better fermentability compared to the untreated hydrolysate”.
With `O=C1O[C@H]([C@@H](O)CO)C(O)=C1O` [ascorbic acid], the Fermentability entry in data set [1] (acid spruce hydrolysate, 100 mM, treatment time 3 h) is reported as “improved fermentability”.
In the case of `COc1cc(/C=C/C=O)ccc1O` [coniferyl aldehyde, reference compound], in data set [5], the viability at 2.25 h, 2.5 mM turned out to be 1.7% and the viability at 7 h, 2.5 mM is 0%. The Glucose consumption result in data set [6] is given as “approximately no reduced glucose concentration”.
In the case of `N[C@@H](CCC(=O)N[C@@H](CS)C(=O)NCC(=O)O)C(=O)O` [glutathione, reduced glutathione], in data set [1] (acid spruce hydrolysate, 10 mM, treatment time 3 h), the Fermentability result was “improved fermentability”.
